Measurements: US8952024B2, “Herbicidal pyrimidone derivatives” (E I du Pont de Nemours and Company, priority 2009, dated 2015)

How the values were obtained:
Assay in all cases: Test D pre-/postemergence plant response
Assay type in all cases: in vivo
[1] = tested on: Russian thistle (Salsola kali); conditions: Preemergence, 16 g ai/ha; scale 0 to 100, 0 no effect, 100 complete control
Outline: (§1)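 Seeds in loam–sand blend treated preemergence, and plants at 1- to 4-leaf stage (2–18 cm) treated postemergence, with compounds in non-phytotoxic solvent with surfactant. Greenhouse for 14–21 days, then visual rating against controls, 0 (no effect) to 100 (complete control).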

[2] = tested on: Surinam grass (Brachiaria decumbens)
Outline: as §1

[3] = tested on: guineagrass (Panicum maximum)
Outline: as §1

[4] = tested on: dallisgrass (Paspalum dilatatum)
Outline: as §1

[5] = tested on: large crabgrass (Digitaria sanguinalis)
Outline: as §1

kochia (Kochia scoparia) = tested on: kochia (Kochia scoparia)
Outline: as §1

[6] = tested on: sowthistle (common sowthistle, Sonchus oleraceous)
Outline: as §1

[7] = tested on: morningglory (pitted morningglory, Ipomoea lacunosa)
Outline: as §1

[8] = tested on: spanishneedles (Bidens bipinnata)
Outline: as §1

[9] = tested on: purslane (common purslane, Portulaca oleracea)
Outline: as §1

[10] = tested on: black mustard (Brassica nigra)
Outline: as §1

[11] = tested on: chickweed (common chickweed, Stellaria media)
Outline: as §1

[12] = tested on: nutsedge (purple nutsedge, Cyperus rotundus)
Outline: as §1

[13] = tested on: itchgrass (Rottboellia cochinchinensis)
Outline: as §1

[14] = tested on: barnyardgrass (Echinochloa crus-galli)
Outline: as §1

[15] = tested on: signalgrass (broadleaf signalgrass, Brachiaria platyphylla)
Outline: as §1

[16] = Postemergence, 31 g ai/ha, scale 0 to 100
[17] = Postemergence, 125 g ai/ha, scale 0 to 100 (0 no effect, 100 complete control)
[18] = Postemergence, 62 g ai/ha, scale 0 to 100 (0 no effect, 100 complete control)
[19] = Preemergence, 16 g ai/ha, scale 0 to 100, 0 no effect, 100 complete control
[20] = Preemergence, 31 g ai/ha, scale 0 to 100 (0 no effect, 100 complete control)
[21] = Preemergence, 125 g ai/ha, scale 0 to 100
[22] = Postemergence, 16 g ai/ha, scale 0 to 100
[23] = Preemergence, 62 g ai/ha, scale 0 to 100
[24] = Postemergence, 31 g ai/ha, scale 0 to 100 (0 no effect, 100 complete control)

Cc1ccc(Cl)cc1-n1c(-c2ccccc2)ncc(C(=O)C2=C(O)CCCC2=O)c1=O [Compound 52]
65: Plant response rating, Surinam Grass [2, 16] | Plant response rating, Dallisgrass [4, 16] | Plant response rating, Crabgrass, Large [5, 22] | Plant response rating, Morningglory [7, 16] | Plant response rating, Purslane [9, 22] | Plant response rating, Purslane [9, 16] | Plant response rating, Purslane [9, 18] | Plant response rating, Black Mustard [10, 22] | Plant response rating, Itchgrass [13, 17] | Plant response rating, Itchgrass [13, 18]
75: Plant response rating, Guineagrass [3, 17] | Plant response rating, Guineagrass [3, 18] | Plant response rating, Dallisgrass [4, 17] | Plant response rating, Crabgrass, Large [5, 23] | Plant response rating, Spanishneedles [8, 22] | Plant response rating, Spanishneedles [8, 16] | Plant response rating, Purslane [9, 17] | Plant response rating, Chickweed [11, 22] | Plant response rating, Barnyardgrass [14, 22] | Plant response rating, Barnyardgrass [14, 24] | Plant response rating, Barnyardgrass [14, 18]
25: Plant response rating, Kochia (kochia (Kochia scoparia); [20]) | Plant response rating, Kochia (kochia (Kochia scoparia); [23]) | Plant response rating, Itchgrass [13, 22]
70: Plant response rating, Guineagrass [3, 16] | Plant response rating, Dallisgrass [4, 18] | Plant response rating, Crabgrass, Large [5, 16] | Plant response rating, Crabgrass, Large [5, 17] | Plant response rating, Crabgrass, Large [5, 18] | Plant response rating, Morningglory [7, 17] | Plant response rating, Morningglory [7, 18] | Plant response rating, Spanishneedles [8, 20]
95: Plant response rating, Dallisgrass [4, 21] | Plant response rating, Sowthistle [6, 16] | Plant response rating, Chickweed [11, 21]
90: Plant response rating, Surinam Grass [2, 17] | Plant response rating, Purslane [9, 23] | Plant response rating, Black Mustard [10, 24] | Plant response rating, Chickweed [11, 16] | Plant response rating, Signalgrass [15, 17] | Plant response rating, Signalgrass [15, 21]
0: Plant response rating, Russian Thistle [1] | Plant response rating, Surinam Grass [2, 19] | Plant response rating, Guineagrass [3, 19] | Plant response rating, Crabgrass, Large [5, 19] | Plant response rating, Kochia (kochia (Kochia scoparia); [22]) | Plant response rating, Kochia (kochia (Kochia scoparia); [16]) | Plant response rating, Kochia (kochia (Kochia scoparia); [18]) | Plant response rating, Sowthistle [6, 19] | Plant response rating, Morningglory [7, 19] | Plant response rating, Morningglory [7, 20] | Plant response rating, Morningglory [7, 23] | Plant response rating, Purslane [9, 19] | Plant response rating, Black Mustard [10, 19] | Plant response rating, Nutsedge, Purple [12, 22] | Plant response rating, Nutsedge, Purple [12, 19] | Plant response rating, Itchgrass [13, 19] | Plant response rating, Itchgrass [13, 20] | Plant response rating, Itchgrass [13, 23] | Plant response rating, Barnyardgrass [14, 19] | Plant response rating, Barnyardgrass [14, 20] | Plant response rating, Barnyardgrass [14, 23] | Plant response rating, Signalgrass [15, 19] | Plant response rating, Signalgrass [15, 20]
30: Plant response rating, Nutsedge, Purple [12, 23]
98: Plant response rating, Surinam Grass [2, 20] | Plant response rating, Surinam Grass [2, 21] | Plant response rating, Crabgrass, Large [5, 21] | Plant response rating, Sowthistle [6, 18] | Plant response rating, Spanishneedles [8, 21] | Plant response rating, Black Mustard [10, 17] | Plant response rating, Black Mustard [10, 18] | Plant response rating, Chickweed [11, 18]
50: Plant response rating, Guineagrass [3, 22] | Plant response rating, Guineagrass [3, 23] | Plant response rating, Dallisgrass [4, 23] | Plant response rating, Morningglory [7, 22] | Plant response rating, Itchgrass [13, 16] | Plant response rating, Signalgrass [15, 22]
5: Plant response rating, Dallisgrass [4, 19] | Plant response rating, Nutsedge, Purple [12, 20] | Plant response rating, Itchgrass [13, 21]
10: Plant response rating, Dallisgrass [4, 20] | Plant response rating, Barnyardgrass [14, 21]
35: Plant response rating, Kochia (kochia (Kochia scoparia); [21]) | Plant response rating, Spanishneedles [8, 19] | Plant response rating, Nutsedge, Purple [12, 18]
100: Plant response rating, Sowthistle [6, 17] | Plant response rating, Sowthistle [6, 21] | Plant response rating, Morningglory [7, 21] | Plant response rating, Purslane [9, 21] | Plant response rating, Black Mustard [10, 21] | Plant response rating, Chickweed [11, 17]
20: Plant response rating, Crabgrass, Large [5, 20] | Plant response rating, Black Mustard [10, 20] | Plant response rating, Nutsedge, Purple [12, 16]
80: Plant response rating, Surinam Grass [2, 18] | Plant response rating, Sowthistle [6, 22] | Plant response rating, Sowthistle [6, 20] | Plant response rating, Spanishneedles [8, 17] | Plant response rating, Spanishneedles [8, 18] | Plant response rating, Black Mustard [10, 23] | Plant response rating, Barnyardgrass [14, 17] | Plant response rating, Signalgrass [15, 18]
40: Plant response rating, Kochia (kochia (Kochia scoparia); [17]) | Plant response rating, Nutsedge, Purple [12, 17] | Plant response rating, Nutsedge, Purple [12, 21]
60: Plant response rating, Dallisgrass [4, 22] | Plant response rating, Purslane [9, 20] | Plant response rating, Signalgrass [15, 16]
